The results in this text go back to patent publication US10004702B2, “Linear guanidine derivatives, methods of preparation and uses thereof” (LEAD DISCOVERY SIENA S.R.L., priority 2014, dated 2018).

The target of assay [1] is Human Serum Albumin (Homo sapiens, UniProt P02768). The experiment in a line: Binding fluorimetric assay (tryptophan quenching). To be noted: fixed concentration of HSA titrated with different amounts of compound. Here is the method:
The solutions were mixed and after allowing 30 minutes at room temperature to reach the equilibrium conditions, the spectra were recorded. […] The percentages obtained were plotted against the concentrations used and the KD values were calculated using GraphPad software (version 5.0).

Assay [2] has as its system Acinetobacter baumannii AC-54/97 (IMP-2). The experiment in a line: Antimicrobial susceptibility testing, MIC by microdilution broth method. Type of assay: cell-based. The settings on record: Acinetobacter baumannii AC-54/97 (IMP-2), Tables 2 and 3. Here is the method: (§1) Bacterial strains were obtained from the ATCC or CCUG culture collections or present in the authors' collection of clinical isolates. Compounds were re-suspended in dimethyl sulfoxyde (DMSO) at a final concentration of 10 mg/ml and subsequently diluted in the culture medium. The minimum inhibitory concentrations (MICs) of the compounds of the invention were determined using the microdilution broth method using Mueller-Hinton broth as recommended by the Clinical Laboratory Standards Institute (CLSI [11]). Bacterial inoculum was 5×10^4 CFU/well. MICs were recorded after 18-24 hours incubation at 35-37° C.
(§2) The Antibacterial activity of compound 28 was also tested on a panel of Gram-negative and Gram-positive clinical isolates, showing various antimicrobial susceptibility profiles (Table 4). The class of drugs for which the isolate was resistant to is indicated in column 2 (PEN, penicillins; ES-CEPH, expanded-spectrum cephalosporins; CARB, carbapenems; AZT; aztreonam; AG, aminoglycosides; FQ, fluoroquinolones; SXT, trimethoprim/sulfamethoxazole; FOS, fosfomycin; GLY, glycopeptides; LNZ, linezolid; COL-R, colistin resistant; COL-S colistin sensitive; PDR, poly-drug resistant).
(In general: Dilution methods test growth across graded concentrations, often in twofold steps.)

Assay [3] concerns Klebsiella pneumoniae ATCC 13833. Described as above. The class given is cell-based. To be noted: 18-24 hours at 35-37° C. How it is done: as §1
Assay [4] deals with Enterococcus faecalis ATCC 19433. The description is as above. Type of assay: cell-based. To be noted: 18-24 hours at 35-37° C. How it is done: as §1
The subject of assay [5] is Stenotrophomonas maltophilia 634/08. The description is as above. Type of assay: cell-based. The settings on record: Mueller-Hinton broth, 18-24 hours at 35-37° C. Here is the method: as §1
Assay [6] deals with Chryseobacterium meningosepticum CCUG 4310. The description is as above. The class given is cell-based. To be noted: 18-24 hours at 35-37° C. Here is the method: as §1
Assay [7] concerns Pseudomonas aeruginosa ATCC 27853. The assay is described as above. The class given is cell-based. The settings on record: 18-24 hours at 35-37° C. Here is the method: as §1
The test system of assay [8] is Alcaligenes faecalis 424/98. Described as above. Type of assay: cell-based. To be noted: Mueller-Hinton broth, 18-24 hours at 35-37° C. Here is the method:
as §1

The test system of assay [9] is Staphylococcus aureus ATCC 25923. The description is as above. The class given is cell-based. To be noted: 18-24 hours at 35-37° C. Here is the method: as §1
Assay [10] deals with Burkholderia cepacia RII. The description is as above. Type of assay: cell-based. The settings on record: Mueller-Hinton broth, 18-24 hours at 35-37° C. Here is the method: as §1
Assay [11] deals with Bacillus subtilis ATCC 6633. Described as above. To be noted: 18-24 hours at 35-37° C. The class given is cell-based. How it is done: as §1
The test system of assay [12] is Escherichia coli CCUG^T. The description is as above. The class given is cell-based. To be noted: Mueller-Hinton broth, 18-24 hours at 35-37° C. Here is the method:
as §1

Assay [13] concerns Acinetobacter baumannii ATCC 17978. The description is as above. The class given is cell-based. To be noted: 18-24 hours at 35-37° C. How it is done: as §1
In assay [14] the test system is Achromobacter xylosoxidans AX 22. The assay is described as above. To be noted: 18-24 hours at 35-37° C. Type of assay: cell-based. Here is the method: as §1
In assay [15] the test system is Klebsiella pneumoniae 081R. The assay is described as above. Type of assay: cell-based. The settings on record: Tables 2 and 3. Here is the method:
as §1, §2

Assay [16] has as its system Enterobacter cloacae VA-417/02 (VIM-4). The description is as above. Type of assay: cell-based. To be noted: Enterobacter cloacae VA-417/02 (VIM-4); Tables 2 and 3. Here is the method:
as §1, §2

The subject of assay [17] is Gram-positive and Gram-negative organisms. Kind of assay: Antimicrobial susceptibility testing, overall statements on the panel. The class given is cell-based. The settings on record: overall comparison over the tested strains. How it is done:
as §1

The mark [18] stands for this setting: ATCC13833, Mueller-Hinton broth, read-out: MIC.
Where [19] appears, read: ATCC19433, Mueller-Hinton broth, read-out: MIC.
The mark [20] stands for this setting: Elizabethkingia meningoseptica, CCUG4310, Mueller-Hinton broth, read-out: MIC.
[21] abbreviates: ATCC27853, Mueller-Hinton broth, read-out: MIC.
[22] abbreviates: ATCC25923, Mueller-Hinton broth, read-out: MIC.
[23] abbreviates: ATCC6633, Mueller-Hinton broth, read-out: MIC.
Setting [24] is: ATCC17978, Mueller-Hinton broth, read-out: MIC.
The mark [25] stands for this setting: AX22, Mueller-Hinton broth, read-out: MIC.

≈ marks a conversion by molar mass, not a printed value. Read-outs that look alike come from different tables or passages of the source.

By MIC is commonly meant the lowest concentration that inhibits growth of the organism.

Chain of Human Serum Albumin (P02768 25-609): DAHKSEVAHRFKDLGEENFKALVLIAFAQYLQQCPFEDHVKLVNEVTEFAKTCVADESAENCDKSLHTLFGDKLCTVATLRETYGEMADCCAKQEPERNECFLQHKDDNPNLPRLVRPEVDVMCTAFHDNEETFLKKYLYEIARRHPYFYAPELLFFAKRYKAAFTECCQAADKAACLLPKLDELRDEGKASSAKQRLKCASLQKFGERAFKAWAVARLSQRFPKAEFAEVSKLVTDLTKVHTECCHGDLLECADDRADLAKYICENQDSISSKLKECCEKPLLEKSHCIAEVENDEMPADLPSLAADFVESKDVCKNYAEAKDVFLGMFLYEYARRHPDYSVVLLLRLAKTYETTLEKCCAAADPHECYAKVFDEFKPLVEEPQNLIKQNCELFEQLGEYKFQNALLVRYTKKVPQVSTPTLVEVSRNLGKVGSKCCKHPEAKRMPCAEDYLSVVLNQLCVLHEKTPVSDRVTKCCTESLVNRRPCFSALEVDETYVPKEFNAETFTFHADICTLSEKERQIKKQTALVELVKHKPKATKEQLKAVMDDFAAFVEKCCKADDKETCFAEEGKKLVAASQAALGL

As for `NC(=O)N1c2ccccc2C=Cc2ccccc21` [CARBAMAZEPINE, Carbamazepine, reference compound], the “intrinsic fluorescence decrease of HSA” value in [1] is on record as “remarkable intrinsic fluorescence decrease”.
With `N=C(N)NCCCCCCCCN(CCCCCCCCNC(=N)NCC1CC1)C(=O)NC(=N)NCCCCCCCCNCCCCCCCCNC(=N)NCC1CC1` [Compound 30, 1-(8-carbamimidamidooctyl)-1-[8-[[N-(cyclopropylmethyl)carbamimidoyl]amino]octyl]-3-[N-[8-[8-[[N-(cyclopropylmethyl)carbamimidoyl]amino]octylamino]octyl]carbamimidoyl]urea], the MIC was 32 µg/mL (≈ 37.9 µM) in [2] (Acinetobacter baumannii, read-out: MIC); greater than 256 µg/mL in [3] (setting [18]); 8 µg/mL (≈ 9.46 µM) in assay [4] (setting [19]); greater than 256 µg/mL in assay [5] (read-out: MIC); greater than 256 µg/mL in [6] (setting [20]); greater than 256 µg/mL in assay [7] (setting [21]). For the same molecule, the minimal inhibitory concentration (MIC) is 32 µg/mL (≈ 37.9 µM) in assay [8] (read-out: MIC); 4 µg/mL (≈ 4.73 µM) in assay [9] (setting [22]); 128 µg/mL (≈ 151 µM) in [10] (read-out: MIC); less than 0.125 µg/mL in assay [11] (setting [23]); greater than 256 µg/mL in [12] (read-out: MIC); greater than 256 µg/mL in [13] (setting [24]). Moreover, the MIC in assay [14] (setting [25]) is greater than 256 µg/mL.
As to `N=C(N)NCCCCCCN(CCCCCCNC(=N)NCC1CC1)C(=O)N(CCCCCCNC(=N)N)CCCCCCNC(=N)NCC1CC1` [Compound 31, 1,3-bis(6-(3-(cyclopropylmethyl)guanidino)hexyl)-1,3-bis(6-guanidinohexyl)urea], the MIC was 32 µg/mL (≈ 43.6 µM) in assay [3] (setting [18]); 32 µg/mL (≈ 43.6 µM) in assay [4] (setting [19]); greater than 256 µg/mL in assay [5] (read-out: MIC); greater than 256 µg/mL in assay [6] (setting [20]); 256 µg/mL (≈ 349 µM) in [7] (setting [21]); greater than 256 µg/mL in [8] (read-out: MIC). The MIC in assay [9] (setting [22]) is 4 µg/mL (≈ 5.46 µM); in assay [10] (read-out: MIC), greater than 256 µg/mL; in assay [11] (setting [23]), 4 µg/mL (≈ 5.46 µM); in assay [12] (read-out: MIC), 16 µg/mL (≈ 21.8 µM); in assay [13] (setting [24]), 128 µg/mL (≈ 175 µM); in [14] (setting [25]), greater than 256 µg/mL.
For the molecule `N=C(N)NCCCCCCCCN(CCCCCCCCNC(=N)NCC1CC1)C(=O)N(CCCCCCCCNC(=N)NCC1CC1)CCCCCCCCNC(=N)NC(=O)NCCCCCCCCNCCCCCCCCNC(=N)NCC1CC1` [Compound 32, 1,3-bis(8-(3-(cyclopropylmethyl)guanidino)octyl)-1-(8-guanidinooctyl)-3-(8-((3-(8-((8-(3-(cyclopropylmethyl))guanidinooctyl)amino)octyl)carbamoyl)guanidino)octyl)urea], the MIC in assay [15] is 16 µg/mL (≈ 12.9 µM); in assay [16] it was 16 µg/mL (≈ 12.9 µM); in [2], 16 µg/mL (≈ 12.9 µM); in [3] (Mueller-Hinton broth) it was 8 µg/mL (≈ 6.46 µM); in [4] (Mueller-Hinton broth), less than 0.125 µg/mL; in assay [5], 64 µg/mL (≈ 51.7 µM). Also, the minimum inhibitory concentration (MIC) amounted to 64 µg/mL (≈ 51.7 µM) in [6] (Mueller-Hinton broth); 32 µg/mL (≈ 25.8 µM) in assay [7] (Mueller-Hinton broth); 32 µg/mL (≈ 25.8 µM) in assay [8]; 8 µg/mL (≈ 6.46 µM) in [9] (Mueller-Hinton broth); 128 µg/mL (≈ 103 µM) in assay [10]; 8 µg/mL (≈ 6.46 µM) in [11] (Mueller-Hinton broth). The MIC in assay [12] turned out to be 8 µg/mL (≈ 6.46 µM); in assay [13] (Mueller-Hinton broth), 32 µg/mL (≈ 25.8 µM); in assay [14] (Mueller-Hinton broth), 64 µg/mL (≈ 51.7 µM). Further, in assay [17], the “antimicrobial spectrum (in words)” value is “active against both Gram-positive and Gram-negative organisms”.
`N=C(N)NCCCCCCN(CCCCCCNC(=N)NCC1CC1)C(=O)NC(=N)NCCCCCCNCCCCCCNC(=N)NCC1CC1` [Compound 33, 1-(6-carbamimidamidohexyl)-1-[6-[[N-(cyclopropylmethyl)carbamimidoyl]amino]hexyl]-3-[N-[6-[6-[[N (cyclopropylmethyl)carbamimidoyl]amino]hexylamino]hexyl]carbamimidoyl]urea]: the MIC in [16] is 64 µg/mL (≈ 87.3 µM); in assay [2], 8 µg/mL (≈ 10.9 µM); in [3] (Mueller-Hinton broth), 64 µg/mL (≈ 87.3 µM); in assay [4] (Mueller-Hinton broth), 32 µg/mL (≈ 43.6 µM); in [5], greater than 256 µg/mL; in assay [6] (Mueller-Hinton broth), greater than 256 µg/mL. For the same molecule, the MIC in assay [7] (Mueller-Hinton broth) was greater than 256 µg/mL; in [8] it was greater than 256 µg/mL; in [9] (Mueller-Hinton broth) it was 16 µg/mL (≈ 21.8 µM); in [10] it was greater than 256 µg/mL; in assay [11] (Mueller-Hinton broth), 8 µg/mL (≈ 10.9 µM); in [12], 32 µg/mL (≈ 43.6 µM). The MIC in [13] (Mueller-Hinton broth) is 256 µg/mL (≈ 349 µM); in [14] (Mueller-Hinton broth), greater than 256 µg/mL.
